Assay results taken from PMC3929664, “A Panel of Diverse Assays to Interrogate the Interaction between Glucokinase and Glucokinase Regulatory Protein, Two Vital Proteins in Human Disease” (PLoS ONE, 2014).
Structures can show the parent of a compound that is named as a salt.

Legend:
[1] = system: europium-conjugated rabbit anti-mouse IgG antibody / mouse anti-FLAG XL 665 antibody; test: IgG HTRF counter-assay; conditions: no GCK or GKRP, mean ± SD
Procedure: (§1) S6P, F1P, and glucose were dissolved in water; GKAs were dissolved in DMSO.
(TIF) Click here for additional data file.

[2] = biological target: T1, GCK enzymatic reaction inhibited by GKRP (recombinant human GCK and GKRP) (Homo sapiens, UniProt P35557+Q14397); test: Bioluminescence assay (ADP-Glo) of the GCK enzyme reaction with GKRP; assay type: biochemical; conditions: for LOPAC1280 screen outcome: 2 µM S6P; for response across formats (ADP only, GCK only, GCK-GKRP): 0.04 mM ADP, 4 nM GCK, 15 nM GCK with 15 nM GKRP
T1 construct: made in house
T1 sequence (P35557 1-465): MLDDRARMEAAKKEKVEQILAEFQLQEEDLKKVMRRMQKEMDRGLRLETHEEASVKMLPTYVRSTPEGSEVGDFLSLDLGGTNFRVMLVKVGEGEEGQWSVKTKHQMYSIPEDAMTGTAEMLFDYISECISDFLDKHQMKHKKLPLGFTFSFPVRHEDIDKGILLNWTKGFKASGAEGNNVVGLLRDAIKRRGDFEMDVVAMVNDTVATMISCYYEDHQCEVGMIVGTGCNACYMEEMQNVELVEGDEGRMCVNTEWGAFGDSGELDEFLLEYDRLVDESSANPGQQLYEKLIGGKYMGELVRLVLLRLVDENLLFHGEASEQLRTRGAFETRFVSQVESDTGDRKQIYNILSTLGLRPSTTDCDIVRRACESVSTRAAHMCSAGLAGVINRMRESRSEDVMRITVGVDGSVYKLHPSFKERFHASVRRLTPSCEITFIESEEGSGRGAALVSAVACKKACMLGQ
T1 sequence (Q14397 1-625): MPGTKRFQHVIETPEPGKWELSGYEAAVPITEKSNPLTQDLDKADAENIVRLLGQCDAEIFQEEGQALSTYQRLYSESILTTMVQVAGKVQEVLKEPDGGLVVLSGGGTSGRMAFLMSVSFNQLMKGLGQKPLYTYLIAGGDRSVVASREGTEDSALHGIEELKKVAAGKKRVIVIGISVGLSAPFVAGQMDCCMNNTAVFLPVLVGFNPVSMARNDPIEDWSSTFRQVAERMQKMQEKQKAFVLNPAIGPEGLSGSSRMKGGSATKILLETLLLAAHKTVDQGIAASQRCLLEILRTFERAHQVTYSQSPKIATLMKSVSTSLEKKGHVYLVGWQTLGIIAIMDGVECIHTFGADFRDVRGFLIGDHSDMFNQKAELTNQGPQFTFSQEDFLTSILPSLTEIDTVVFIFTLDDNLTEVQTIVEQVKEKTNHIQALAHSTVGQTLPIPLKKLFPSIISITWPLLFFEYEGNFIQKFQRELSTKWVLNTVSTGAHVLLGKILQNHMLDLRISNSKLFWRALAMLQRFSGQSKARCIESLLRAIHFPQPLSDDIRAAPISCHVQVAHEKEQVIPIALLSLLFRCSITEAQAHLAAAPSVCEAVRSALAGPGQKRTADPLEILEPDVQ
Procedure: A luminescence-based assay was developed for detection of ADP generation by recombinant GST-GCK (ADP-Glo™ Kinase Assay; Promega). Final reaction conditions included 25 mM HEPES, 25 mM KCl, 2 mM MgCl2, 1 mM DTT, 0.025% BSA, 0.01% Tween-20, 5 mM glucose, and concentrations of GST-GCK and FLAG-GKRP as indicated, and the reaction was initiated by addition of ATP to a final concentration of 0.4 mM. The reaction was terminated and luminescence generated using ADP-Glo™ Reagent and Kinase Detection Reagent (both Promega). In 1536-well plate format, luminescence enzyme assay buffer was dispensed (2 µl/well) using a BioRAPTR into white 1536-well medium binding plates and initiated by addition of 1 µl 1.2 mM ATP. After lidded incubation for the times indicated at room temperature, 2.5 µl of ADP-Glo™ Reagent was added to each well and plates were incubated with lidding for 60 minutes at room temperature. Following 5 µl addition per well of Kinase Detection Reagent, plates were incubated with lidding for a further 30 minutes at room temperature before luminescent detection using a ViewLux Microplate Imager (PerkinElmer). For the LOPAC^1280 library screen, column 1 was all components with DMSO (maximum signal) and column 3 was no GCK with DMSO (minimum signal). These two control columns were used for data normalization. The final HTS protocol is in Table S3, and the data have been deposited in PubChem (AID 743206).
as §1
The firefly luciferase enzyme utilizes luciferin and ATP to generate bioluminescence, and the coupling of ATP-dependent kinases to luciferase activity has enabled kinase activity to be measured quantitatively by luminescence measurements in high-throughput screens. The ADP-Glo™ assay, utilizing a two-step luciferase-based ADP-detection protocol, was employed to measure GCK activity ( Figure 1C ). Initial validation was carried out in 384-well plate format, and focused on GCK in the absence of GKRP to test suitability of the ADP-Glo™ format for the GCK enzyme. A titration of 14 GCK concentrations (1.5–100 nM; n = 8 for each concentration) was assessed at 5 mM glucose and 0.4 mM ATP at pH 7.4. The reaction was incubated for 45 minutes at room temperature. To estimate percent conversion of ATP to ADP, mixtures of ATP and ADP (total concentration 0.4 mM) were tested in duplicate, containing 0, 3, 5, 10, 30, 50, 70, and 100% ADP. The luminescence value at 10% ADP corresponded to the luminescence generated by 4 nM GCK (Figure S7). The ADP-Glo™ kit is linear throughout the range tested and provides an excellent range of detection.
The effects of GKRP inhibition were then assessed using the same reaction conditions at pH 7.1. ADP generation was measured using a matrix of five concentrations each of GCK and GKRP (0, 5, 10, 15, and 20 nM) in quadruplicate ( Figure 5A ). Reactions were incubated for 75 minutes. Luminescence of 15 nM GCK was reduced by approximately 60% by 15 nM GKRP, and the mean S/B at 15 nM GCK +15 nM GKRP was 3.7.
Accordingly, the bioluminescence reaction was capable of measuring GCK enzymatic activity and its inhibition by GKRP. We therefore pursued miniaturization of the assay to 1536-well plate format and tested the effects of S6P and F1P in three different assay formats: 0.04 mM ADP in the absence of GCK and GKRP, 4 nM GCK, and 15 nM GCK with 15 nM GKRP ( Figure 5B ). All assays provided robust luminescence signal in the absence of F1P or S6P (S/B >4.0).

[3] = system: GCK and GKRP; parameters: method as in PMID 14627435; conditions: enhancement of the interaction of GCK and GKRP; read-out: EC50, previously reported; cited from earlier work

With `Cc1ccc(C(=O)Nc2ccc(S(=O)(=O)O)c3cc(S(=O)(=O)O)cc(S(=O)(=O)O)c23)cc1NC(=O)c1cccc(NC(=O)Nc2cccc(C(=O)Nc3cc(C(=O)Nc4ccc(S(=O)(=O)O)c5cc(S(=O)(=O)O)cc(S(=O)(=O)O)c45)ccc3C)c2)c1` [suramin sodium salt] the IC50 [1] was 250 ± 70 nM and the LOPAC1280 screen outcome ([2]; 15 nM GCK, 15 nM GKRP) was “inhibitors of the GCK-GKRP interaction”.

For `O=P(O)(O)OC[C@@H](O)[C@@H](O)[C@H](O)[C@@H](O)CO` [S6P, sorbitol 6-phosphate], the EC50 [3] is given as roughly 500 nM, the IC50 ([2]; 15 nM GCK, 15 nM GKRP, 75 minutes, mean ± SD, read-out: IC50 (decrease in luminescence)) is given as 5 ± 0.6 nM and the “response across formats (ADP only, GCK only, GCK-GKRP)” value [2] is given as “dependent on the presence of GKRP”.

In the case of `O=C(O)C1=CC(=C(c2ccc(O)c(C(=O)O)c2)c2ccc(O)c(C(=O)O)c2)C=CC1=O` [ATA, aurintricarboxylic acid], the IC50 [1] is reported as 90 ± 30 nM and the LOPAC1280 screen outcome ([2]; 15 nM GCK, 15 nM GKRP) is reported as “inhibitors of the GCK-GKRP interaction”.

In the case of `O=C(COP(=O)(O)O)[C@@H](O)[C@H](O)[C@H](O)CO` [F1P, fructose 1-phosphate], the EC50 ([2]; 15 nM GCK, 15 nM GKRP, 75 minutes, mean ± SD, read-out: EC50 (activation of GCK enzymatic reaction, increase in luminescence)) is reported as 1000 ± 200 nM and the “response across formats (ADP only, GCK only, GCK-GKRP)” value [2] is reported as “dependent on the presence of GKRP”.
